Measurements reported in ChEMBL document CHEMBL3044827, “Synthesis and in vitro anti-Helicobacter pylori activity of 2-[(chlorobenzyl)thio]-5-(5-nitro-2-furyl)-1,3,4-thiadiazoles” (2008).

Tests used:
Type in all cases: functional
Settings in all cases: read-out: DIZ
Helicobacter pylori [1] = experiment: Antibacterial activity against Helicobacter pylori at 8 ug/disk after 3 to 5 days by paper disk diffusion method
Helicobacter pylori [2] = experiment: Antibacterial activity against Helicobacter pylori at 0.5 ug/disk after 3 to 5 days by paper disk diffusion method
Helicobacter pylori [3] = experiment: Antibacterial activity against Helicobacter pylori at 4 ug/disk after 3 to 5 days by paper disk diffusion method
Helicobacter pylori [4] = experiment: Antibacterial activity against Helicobacter pylori at 1 ug/disk after 3 to 5 days by paper disk diffusion method
Helicobacter pylori [5] = experiment: Antibacterial activity against metronidazole-resistant Helicobacter pylori at 32 ug/disk after 3 to 5 days by paper disk diffusion method
Helicobacter pylori [6] = experiment: Antibacterial activity against Helicobacter pylori at 32 ug/disk after 3 to 5 days by paper disk diffusion method
Helicobacter pylori [7] = experiment: Antibacterial activity against Helicobacter pylori at 2 ug/disk after 3 to 5 days by paper disk diffusion method
Helicobacter pylori [8] = experiment: Antibacterial activity against metronidazole-sensitive Helicobacter pylori at 32 ug/disk after 3 to 5 days by paper disk diffusion method
Helicobacter pylori [9] = experiment: Antibacterial activity against metronidazole-sensitive Helicobacter pylori at 8 ug/disk after 3 to 5 days by paper disk diffusion method
Helicobacter pylori [10] = experiment: Antibacterial activity against Helicobacter pylori at 16 ug/disk after 3 to 5 days by paper disk diffusion method
Helicobacter pylori [11] = experiment: Antibacterial activity against metronidazole-resistant Helicobacter pylori at 8 ug/disk after 3 to 5 days by paper disk diffusion method
Helicobacter pylori [12] = experiment: Antibacterial activity against metronidazole-sensitive Helicobacter pylori at 16 ug/disk after 3 to 5 days by paper disk diffusion method
Helicobacter pylori [13] = experiment: Antibacterial activity against metronidazole-resistant Helicobacter pylori at 16 ug/disk after 3 to 5 days by paper disk diffusion method

| SMILES | zone of inhibition at 8 µg/disc (Helicobacter pylori [1]) | zone of inhibition at 0.5 µg/disc (Helicobacter pylori [2]) | zone of inhibition at 4 µg/disc (Helicobacter pylori [3]) | zone of inhibition at 1 µg/disc (Helicobacter pylori [4]) | zone of inhibition at 32 µg/disc (Helicobacter pylori [5]) | zone of inhibition at 32 µg/disc (Helicobacter pylori [6]) | zone of inhibition at 2 µg/disc (Helicobacter pylori [7]) | zone of inhibition at 32 µg/disc (Helicobacter pylori [8]) | zone of inhibition at 8 µg/disc (Helicobacter pylori [9]) | zone of inhibition at 16 µg/disc (Helicobacter pylori [10]) | zone of inhibition at 8 µg/disc (Helicobacter pylori [11]) | zone of inhibition at 16 µg/disc (Helicobacter pylori [12]) | zone of inhibition at 16 µg/disc (Helicobacter pylori [13]) |
| --- | --- | --- | --- | --- | --- | --- | --- | --- | --- | --- | --- | --- | --- |
| O=[N+]([O-])c1ccc(-c2nnc(SCc3ccccc3)s2)o1 | 17.4 mm | 6.7 mm | 14.7 mm | 9.6 mm | 25 mm | 24.1 mm | 12.1 mm | 25 mm | 18 mm | 21 mm | 19 mm | 22 mm | 22 mm |
| O=[N+]([O-])c1ccc(-c2nnc(SCc3ccccc3Cl)s2)o1 | 17.1 mm | 6.8 mm | 11.3 mm | 8.3 mm | 22 mm | 21.4 mm | 9.4 mm | 21 mm | 19 mm | 18.9 mm | 18 mm | 21 mm | 20 mm |
| O=[N+]([O-])c1ccc(-c2nnc(SCc3cccc(Cl)c3)s2)o1 | 20.6 mm | 10.3 mm | 18.4 mm | 13.1 mm | 25 mm | 25.8 mm | 15.8 mm | 28 mm | 21 mm | 24.1 mm | 20 mm | 25 mm | 22 mm |
| O=[N+]([O-])c1ccc(-c2nnc(SCc3ccc(Cl)cc3)s2)o1 | – | – | – | – | 17 mm | – | – | 19 mm | 6 mm | – | 16 mm | 16 mm | 17 mm |
| O=[N+]([O-])c1ccc(-c2nnc(SCc3ccc(Cl)cc3Cl)s2)o1 | – | – | – | – | 6 mm | – | – | 15 mm | 13 mm | – | 6 mm | 15 mm | 6 mm |
| O=[N+]([O-])c1ccc(-c2nnc(SCc3ccc(Cl)c(Cl)c3)s2)o1 | – | – | – | – | 12 mm | – | – | 15 mm | 11 mm | – | 6 mm | 13 mm | 6 mm |
| O=[N+]([O-])c1ccc(-c2nnc(SCc3cccc(Cl)c3Cl)s2)o1 | – | – | – | – | 17 mm | – | – | 16 mm | 15 mm | – | 6 mm | 16 mm | 6 mm |
| O=[N+]([O-])c1ccc(-c2nnc(SCc3c(Cl)cccc3Cl)s2)o1 | 19.4 mm | 8.7 mm | 15.2 mm | 10.9 mm | 24 mm | 23.7 mm | 13.1 mm | 26 mm | 21 mm | 21.9 mm | 20 mm | 23 mm | 21 mm |
| CC1(C)S[C@@H]2[C@H](NC(=O)[C@H](N)c3ccc(O)cc3)C(=O)N2[C@H]1C(=O)O [AMOXICILLIN] | – | – | – | 24.5 mm | – | – | – | – | – | – | – | – | – |
| Cc1ncc([N+](=O)[O-])n1CCO [METRONIDAZOLE] | 16.3 mm | – | – | – | – | – | – | – | – | – | – | – | – |
